According to patent publication US20250059220A1, “SUBSTITUTED BENZOTHIOPHENE DERIVATIVES AND METHODS OF USE THEREOF” (Merck Sharp & Dohme LLC, priority 2021, published 2025):

Legend:
human PTPN2 (1-387) = human PTPN2 (1-387) (Homo sapiens (Human), UniProt P17706); experiment: Human PTPN2 Biochemical Assay; conditions: DiFMUP substrate
In short: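 Human PTPN2 (1-387) preincubated 30 min at RT with compound (10-point 3-fold series) in Tris pH 7.4 buffer with 0.5 mM DTT, then DiFMUP substrate added for 1 h at RT. Fluorescence at ex 360/em 460 nm, normalised to no-enzyme and enzyme controls; EC50 from 4-parameter fit.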

human PTPN1 (1-435) = human PTPN1 (1-435) (Homo sapiens (Human), UniProt P18031); experiment: Human PTPN1 Biochemical Assay; conditions: DiFMUP substrate, read-out: PTP1B IC50
Chain of human PTPN1 (1-435) (P18031 whole entry): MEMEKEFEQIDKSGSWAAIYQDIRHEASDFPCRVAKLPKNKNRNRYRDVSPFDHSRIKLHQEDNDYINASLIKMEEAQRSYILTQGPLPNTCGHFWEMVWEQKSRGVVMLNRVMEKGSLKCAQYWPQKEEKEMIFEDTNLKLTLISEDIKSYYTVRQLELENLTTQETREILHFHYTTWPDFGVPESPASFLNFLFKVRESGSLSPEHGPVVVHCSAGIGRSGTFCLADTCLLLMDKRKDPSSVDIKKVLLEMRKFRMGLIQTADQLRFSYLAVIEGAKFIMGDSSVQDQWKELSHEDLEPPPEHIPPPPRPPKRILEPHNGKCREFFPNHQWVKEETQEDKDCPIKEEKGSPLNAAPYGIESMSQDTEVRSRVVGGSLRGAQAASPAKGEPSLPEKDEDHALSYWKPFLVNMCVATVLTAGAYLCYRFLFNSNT
In short: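 Read-out is DiFMUP hydrolysis fluorescence (360 nm excitation, 460 nm emission) after 1 h at room temperature, following 30 min enzyme–compound preincubation.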

Chain of human PTPN2 (1-387) (P17706 other isoform, or with tags, fused parts or gaps): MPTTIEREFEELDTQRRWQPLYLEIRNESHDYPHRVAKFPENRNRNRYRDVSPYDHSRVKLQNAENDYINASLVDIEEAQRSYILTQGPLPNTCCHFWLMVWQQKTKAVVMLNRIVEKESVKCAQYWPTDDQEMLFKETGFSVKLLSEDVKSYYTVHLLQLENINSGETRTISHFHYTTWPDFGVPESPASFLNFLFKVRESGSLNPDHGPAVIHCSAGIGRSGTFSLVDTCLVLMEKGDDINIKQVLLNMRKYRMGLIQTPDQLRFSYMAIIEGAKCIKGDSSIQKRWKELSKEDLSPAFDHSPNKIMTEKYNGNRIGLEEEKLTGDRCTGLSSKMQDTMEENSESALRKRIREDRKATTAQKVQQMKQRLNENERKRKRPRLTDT

Compound	IC50 (human PTPN2 (1-387)) [µM]	IC50 (human PTPN1 (1-435)) [µM]
CC(NC(=O)c1ccc2sc(C(F)(F)P(=O)(O)O)c(Br)c2c1)c1cccc(OC(F)(F)F)c1 (stereo not shown) [Compound 102]	2.46	2.88
CC(NC(=O)c1ccc2sc(C(F)(F)P(=O)(O)O)c(Br)c2c1)c1cnccn1 (stereo not shown) [Compound 103]	3.46	3.14
O=C(NC1COc2ccccc2C1)c1ccc2sc(C(F)(F)P(=O)(O)O)c(Br)c2c1 (stereo not shown) [Compound 110]	3.56	3.2
O=C(NC1(c2cncc(C(F)(F)F)c2)CC1)c1ccc2sc(C(F)(F)P(=O)(O)O)c(Br)c2c1 [Compound 111]	4.26	3.98
CC(NC(=O)c1ccc2sc(C(F)(F)P(=O)(O)O)c(Br)c2c1)c1ccccc1-n1cccn1 (stereo not shown) [Compound 113]	4.17	4.08
O=C(NCC1CCCN(c2ncccn2)C1)c1ccc2sc(C(F)(F)P(=O)(O)O)c(Br)c2c1 (stereo not shown) [Compound 114]	5.17	3.5
O=C(NC1(c2cccc(F)c2)CCCC1)c1ccc2sc(C(F)(F)P(=O)(O)O)c(Br)c2c1 [Compound 115]	2.6	3.62
O=C(N[C@H]1CCN(C(=O)C2CC2)C1)c1ccc2sc(C(F)(F)P(=O)(O)O)c(Br)c2c1 [Compound 116]	1.06	0.987
O=C(NC(c1ccc(F)cc1)C(F)F)c1ccc2sc(C(F)(F)P(=O)(O)O)c(Br)c2c1 (stereo not shown) [Compound 117]	2.73	2.14
O=C(NCc1cccnc1C(F)(F)F)c1ccc2sc(C(F)(F)P(=O)(O)O)c(Br)c2c1 [Compound 120]	4.99	3.79
O=C(NCC1CNC1)c1ccc2sc(C(F)(F)P(=O)(O)O)c(Br)c2c1 [Compound 126]	6.11	5.23
O=C(NC1CCCOC1)c1ccc2sc(C(F)(F)P(=O)(O)O)c(Br)c2c1 (stereo not shown) [Compound 127]	6.7	5.14
O=C(NC1CCS(=O)(=O)CC1)c1ccc2sc(C(F)(F)P(=O)(O)O)c(Br)c2c1 [Compound 128]	4.9	4.08
O=C1NC[C@@H](CNC(=O)c2ccc3sc(C(F)(F)P(=O)(O)O)c(Br)c3c2)N1 [Compound 131]	4.16	4.13
O=C1NC[C@H](CNC(=O)c2ccc3sc(C(F)(F)P(=O)(O)O)c(Br)c3c2)N1 [Compound 132]	5.23	4.7
O=C1CCC(CNC(=O)c2ccc3sc(C(F)(F)P(=O)(O)O)c(Br)c3c2)N1 (stereo not shown) [Compound 136]	4.25	3.76
CC(NC(=O)c1ccc2sc(C(F)(F)P(=O)(O)O)c(Br)c2c1)c1cncnc1 (stereo not shown) [Compound 138]	2.91	2.08
O=C(NCc1ncn[nH]1)c1ccc2sc(C(F)(F)P(=O)(O)O)c(Br)c2c1 [Compound 139]	1.49	1.3
O=C(NCCn1cnnc1)c1ccc2sc(C(F)(F)P(=O)(O)O)c(Br)c2c1 [Compound 143]	6.14	4.34
O=C(NCCn1cccn1)c1ccc2sc(C(F)(F)P(=O)(O)O)c(Br)c2c1 [Compound 144]	7.17	1.41
CC(Cn1cncn1)NC(=O)c1ccc2sc(C(F)(F)P(=O)(O)O)c(Br)c2c1 (stereo not shown) [Compound 145]	6.98	4.59
O=C(NCCn1cncn1)c1ccc2sc(C(F)(F)P(=O)(O)O)c(Br)c2c1 [Compound 146]	7.47	3.65
O=C(NCCn1ccnn1)c1ccc2sc(C(F)(F)P(=O)(O)O)c(Br)c2c1 [Compound 147]	5.66	3.19
O=C(NCCn1nncc1-c1ccccc1)c1ccc2sc(C(F)(F)P(=O)(O)O)c(Br)c2c1 [Compound 150]	6.28	2.59

Results, then the compound that gave them:

IC50 (human PTPN2 (1-387)) [µM]	IC50 (human PTPN1 (1-435)) [µM]	Compound
6.5	9.15	O=C(Nc1cccc(CO)n1)c1ccc2sc(C(F)(F)P(=O)(O)O)c(Br)c2c1 [Compound 104]
5.78	5.14	CCC(NC(=O)c1ccc2sc(C(F)(F)P(=O)(O)O)c(Br)c2c1)c1nccs1 (stereo not shown) [Compound 105]
8.97	6.92	Cc1c(NC(=O)c2ccc3sc(C(F)(F)P(=O)(O)O)c(Br)c3c2)cccc1C(=O)N1CCCC1 [Compound 106]
4.03	3.86	COCCOc1cc(C)ccc1NC(=O)c1ccc2sc(C(F)(F)P(=O)(O)O)c(Br)c2c1 [Compound 107]
3.62	4.08	O=C(Nc1ccccc1OC1CCOCC1)c1ccc2sc(C(F)(F)P(=O)(O)O)c(Br)c2c1 [Compound 108]
0.78	0.465	O=C(Nc1cccc(-n2nccn2)c1)c1ccc2sc(C(F)(F)P(=O)(O)O)c(Br)c2c1 [Compound 109]
2.91	3.68	COCC(NC(=O)c1ccc2sc(C(F)(F)P(=O)(O)O)c(Br)c2c1)c1ccc(F)cc1 (stereo not shown) [Compound 112]
6.17	5.91	Cc1cc(C)n(-c2ccccc2NC(=O)c2ccc3sc(C(F)(F)P(=O)(O)O)c(Br)c3c2)n1 [Compound 118]
0.63	0.404	O=C(NCc1cnc2[nH]ccc2c1)c1ccc2sc(C(F)(F)P(=O)(O)O)c(Br)c2c1 [Compound 119]
3.1	2.31	O=C(NCc1ccc(C(F)(F)F)nc1)c1ccc2sc(C(F)(F)P(=O)(O)O)c(Br)c2c1 [Compound 121]
5.37	3.89	COc1ncccc1CNC(=O)c1ccc2sc(C(F)(F)P(=O)(O)O)c(Br)c2c1 [Compound 122]
4.29	3.56	O=C(NCc1cnccn1)c1ccc2sc(C(F)(F)P(=O)(O)O)c(Br)c2c1 [Compound 123]
7.38	6.12	Cc1nn(C)c(C)c1CNC(=O)c1ccc2sc(C(F)(F)P(=O)(O)O)c(Br)c2c1 [Compound 124]
6.52	5.23	COCCCNC(=O)c1ccc2sc(C(F)(F)P(=O)(O)O)c(Br)c2c1 [Compound 125]
2.65	2.23	Cc1c[nH]c(CNC(=O)c2ccc3sc(C(F)(F)P(=O)(O)O)c(Br)c3c2)c(C)c1=O [Compound 129]
1.22	1.09	C[C@@H](NC(=O)c1ccc2sc(C(F)(F)P(=O)(O)O)c(Br)c2c1)c1cccnn1 [Compound 130]
1.18	1.45	O=C(NCc1ccc(F)nc1)c1ccc2sc(C(F)(F)P(=O)(O)O)c(Br)c2c1 [Compound 133]
2.88	2.4	O=C(NCc1ccc[n+]([O-])c1)c1ccc2sc(C(F)(F)P(=O)(O)O)c(Br)c2c1 [Compound 134]
1.9	1.92	O=C(NCc1cncc(F)c1)c1ccc2sc(C(F)(F)P(=O)(O)O)c(Br)c2c1 [Compound 135]
1.42	1.09	Cc1ccc(CNC(=O)c2ccc3sc(C(F)(F)P(=O)(O)O)c(Br)c3c2)nn1 [Compound 137]
1.81	1.48	O=C(NCc1c[nH]nn1)c1ccc2sc(C(F)(F)P(=O)(O)O)c(Br)c2c1 [Compound 140]
3.72	2.32	Cn1cncc1CNC(=O)c1ccc2sc(C(F)(F)P(=O)(O)O)c(Br)c2c1 [Compound 141]
1.87	2.64	O=C(NCc1cn2ccccc2n1)c1ccc2sc(C(F)(F)P(=O)(O)O)c(Br)c2c1 [Compound 142]
5.94	5.27	CC(Cn1ccnc1)NC(=O)c1ccc2sc(C(F)(F)P(=O)(O)O)c(Br)c2c1 (stereo not shown) [Compound 148]
6.01	3.13	Cc1cnn(CCNC(=O)c2ccc3sc(C(F)(F)P(=O)(O)O)c(Br)c3c2)c1 [Compound 149]
5.98	2.74	CC(CC1C=Nc2ccc(F)cc21)NC(=O)c1ccc2sc(C(F)(F)P(=O)(O)O)c(Br)c2c1 (stereo not shown) [Compound 151]
8.22	4.41	COc1ccc2c(c1)C(CC(C)NC(=O)c1ccc3sc(C(F)(F)P(=O)(O)O)c(Br)c3c1)C=N2 (stereo not shown) [Compound 152]
1.95	3.16	O=C(NCCc1c[nH]c2ccccc12)c1ccc2sc(C(F)(F)P(=O)(O)O)c(Br)c2c1 [Compound 153]
2.77	1.52	COc1ccc2[nH]cc(CCNC(=O)c3ccc4sc(C(F)(F)P(=O)(O)O)c(Br)c4c3)c2c1 [Compound 154]
